Test results taken from the NIST ThermoML archive (doi:10.1016/j.jct.2006.07.013).
Numbers after ± are expanded uncertainties.

Experiments:
[1] = 298.15 K, 101.33 kPa, Liquid; for speed of sound: Sing-around technique in a fixed-path interferometer
[2] = refractive index (Na D-line) (dimensionless); conditions: 298.15 K, 101.33 kPa, Liquid

Row | mass density ([1]; Vibrating tube method) [kg/m3] | refractive index ([2]; refractometer) | Compound | mass density [1] [kg/m3] | speed of sound [1] [m/s] | refractive index ([2]; Standard Abbe refractometry)
1 | – | – | CCCCOC(C)=O [butyl ethanoate] | 876.35 ± 1.9 | 1193.1 ± 2.1 | 1.39191 ± 0.00051
2 | – | – | COC(C)=O [methyl ethanoate] | 927.36 ± 0.65 | 1154 ± 1.2 | 1.35893 ± 0.00037
3 | 875.88 ± 0.23 | 1.40945 ± 0.00021 | CCCCCCC(=O)OC [methyl heptanoate] | – | 1254.6 ± 1.2 | –
4 | – | – | Cc1ccccc1 [toluene] | 862.34 ± 0.18 | 1306.3 ± 0.7 | 1.4939 ± 0.00031
